Source: patent US12421205B2, “GLP-1 receptor agonist” (HYUNDAI PHARM CO., LTD., priority 2019, dated 2025)

Legend:
hERG = target: T1, hERG (Homo sapiens, UniProt Q12809); assay: hERG inhibition test (Predictor hERG Fluorescence Polarization assay kit); type: binding; conditions: probe kit Tracer (fluorescent hERG ligand), hERG % inhibition at 10 uM, relative to E-4031 and solvent control
T1 construct: purchased Invitrogen PV5365
How it was run: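 Competitive fluorescence-polarization binding of fluorescent tracer to hERG membrane preparation, 2.5 h at room temperature, mP read at 531/579 nm. % inhibition at 10 uM test compound, scaled between solvent control (0%) and E-4031 (100%).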

human GLP-1 receptor = target: T2, human GLP-1 receptor (Homo sapiens, UniProt P43220); assay: cAMP activity test (cAMP dynamic HTRF kit) in CHO-K1/GLP-1 receptor-expressing cells; type: cell-based; conditions: cAMP activity, CHO-K1/GLP-1 receptor-expressing cells; read-out: EC50
T2 construct: host or cells: CHO-K1
How it was run: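 Cells in HBSS with 0.1% BSA, 0.5 mM IBMX and 5 mM HEPES, then lysed; cAMP-d2 and anti-cAMP cryptate added for 3 h. HTRF read-out, where FRET signal is inversely proportional to intracellular cAMP.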

T2 sequence (P43220 24-463): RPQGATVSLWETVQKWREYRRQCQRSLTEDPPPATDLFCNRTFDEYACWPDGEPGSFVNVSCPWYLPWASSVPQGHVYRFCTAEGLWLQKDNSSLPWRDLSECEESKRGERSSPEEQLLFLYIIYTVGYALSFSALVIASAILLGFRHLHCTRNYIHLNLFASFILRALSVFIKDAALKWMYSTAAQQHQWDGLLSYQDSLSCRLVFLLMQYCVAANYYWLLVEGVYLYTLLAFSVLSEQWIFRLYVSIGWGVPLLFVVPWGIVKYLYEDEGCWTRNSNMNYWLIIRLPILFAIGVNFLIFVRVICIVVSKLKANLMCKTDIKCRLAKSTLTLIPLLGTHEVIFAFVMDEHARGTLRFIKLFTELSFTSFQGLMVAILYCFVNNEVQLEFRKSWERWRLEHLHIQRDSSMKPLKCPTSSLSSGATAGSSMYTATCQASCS
T1 sequence (Q12809 whole entry): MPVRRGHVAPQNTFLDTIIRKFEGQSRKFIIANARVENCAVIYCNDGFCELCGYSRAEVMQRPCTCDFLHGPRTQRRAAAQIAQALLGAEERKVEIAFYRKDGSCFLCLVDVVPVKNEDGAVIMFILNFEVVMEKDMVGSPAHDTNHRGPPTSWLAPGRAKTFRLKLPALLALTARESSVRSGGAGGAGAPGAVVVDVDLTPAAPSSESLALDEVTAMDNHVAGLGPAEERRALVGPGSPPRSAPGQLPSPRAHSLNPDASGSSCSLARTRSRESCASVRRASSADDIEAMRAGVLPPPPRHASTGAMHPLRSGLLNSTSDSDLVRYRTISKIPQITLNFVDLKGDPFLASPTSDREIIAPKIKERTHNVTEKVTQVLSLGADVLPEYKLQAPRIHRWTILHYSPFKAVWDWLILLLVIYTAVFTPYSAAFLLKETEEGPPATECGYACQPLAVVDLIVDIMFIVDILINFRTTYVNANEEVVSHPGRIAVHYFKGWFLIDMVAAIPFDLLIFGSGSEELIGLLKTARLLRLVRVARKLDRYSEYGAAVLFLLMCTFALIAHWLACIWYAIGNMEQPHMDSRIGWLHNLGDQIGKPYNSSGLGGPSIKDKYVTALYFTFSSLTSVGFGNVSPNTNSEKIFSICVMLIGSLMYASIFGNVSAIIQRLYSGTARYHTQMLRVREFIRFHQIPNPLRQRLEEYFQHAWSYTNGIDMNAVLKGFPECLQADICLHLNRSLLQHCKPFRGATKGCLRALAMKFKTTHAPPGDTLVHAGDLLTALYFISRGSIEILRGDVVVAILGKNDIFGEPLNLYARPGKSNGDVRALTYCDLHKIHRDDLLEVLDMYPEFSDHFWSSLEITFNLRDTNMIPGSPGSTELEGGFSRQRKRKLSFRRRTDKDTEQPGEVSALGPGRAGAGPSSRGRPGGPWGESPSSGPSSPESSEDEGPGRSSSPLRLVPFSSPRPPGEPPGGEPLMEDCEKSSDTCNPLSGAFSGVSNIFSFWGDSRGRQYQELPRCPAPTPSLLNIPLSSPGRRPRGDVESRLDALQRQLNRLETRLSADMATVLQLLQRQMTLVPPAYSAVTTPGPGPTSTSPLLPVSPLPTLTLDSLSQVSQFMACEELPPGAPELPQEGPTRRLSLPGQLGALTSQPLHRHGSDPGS

EC50 (human GLP-1 receptor) [nM]	Compound	inhibition at 2.5 h, 10 µM (hERG) [%]
15	O=C(O)c1ccc2nc(Cc3ccc(-c4cccc(OCc5ccc(C(F)(F)F)cc5)n4)c(F)c3)n(C[C@@H]3CCO3)c2c1 [Example 121, (S)-2-(3-fluoro-4-(6-((4-(trifluoromethyl)benzyl)oxy)pyridin-2-yl)benzyl)-1-(oxetan-2-ylmethyl)-1H-benzo[d]imidazole-6-carboxylic acid]	-10.7
12	O=C(O)c1ccc2nc(Cc3ccc(-c4cccc(OCc5ccc(F)cc5F)n4)c(F)c3)n(C[C@@H]3CCO3)c2c1 [Example 119, (S)-2-(4-(6-((2,4-difluorobenzyl)oxy)pyridin-2-yl)-3-fluorobenzyl)-1-(oxetan-2-ylmethyl)-1H-benzo[d]imidazole-6-carboxylic acid]	4.13
800	O=C(O)c1ccc2nc(Cc3ccc(-c4cccc(OCc5ccc(Cl)cc5F)c4)cc3F)n(CCF)c2c1 [Example 56, 2-((3′-(4-chloro-2-fluorobenzyloxy)-3-fluorobiphenyl-4-yl)methyl)-1-(2-fluoroethyl)-1H-benzo[d]imidazole-6-carboxylic acid]	0.83
78	O=C(O)c1ccc2nc(Cc3ccc(-c4ccc(F)c(OCc5ccc(Cl)cc5F)c4)c(F)c3)n(CC3CCCO3)c2c1 (centres unmarked) [Example 92, 2-((3′-(4-chloro-2-fluorobenzyloxy)-2,4′-difluorobiphenyl-4-yl)methyl)-1-((tetrahydrofuran-2-yl)methyl)-1H-benzo[d]imidazole-6-carboxylic acid]	8.68
7.2	O=C(O)c1ccc2nc(Cc3ccc(-c4ccc(F)c(OCc5ccc(Cl)cc5F)n4)cc3F)n(CC3CCCO3)c2c1 (centres unmarked) [Example 91, 2-(4-(6-(4-chloro-2-fluorobenzyloxy)-5-fluoropyridin-2-yl)-2-fluorobenzyl)-1-((tetrahydrofuran-2-yl)methyl)-1H-benzo[d]imidazole-6-carboxylic acid]	-68.2
< 3.2	N#Cc1ccc(COc2cccc(-c3cc(F)c(Cc4nc5ccc(C(=O)O)cc5n4CC4CCCO4)cc3F)n2)c(F)c1 (centres unmarked) [Example 71, 2-(4-(6-(4-cyano-2-fluorobenzyloxy)pyridin-2-yl)-2,5-difluorobenzyl)-1-((tetrahydrofuran-2-yl)methyl)-1H-benzo[d]imidazole-6-carboxylic acid]	-2.52
75	N#Cc1ccc(COc2cccc(-c3ccc(Cc4nc5ccc(C(=O)O)cc5n4CC4CCCO4)cc3F)c2)c(F)c1 (centres unmarked) [Example 9, 2-((3′-(4-cyano-2-fluorobenzyloxy)-2-fluorobiphenyl-4-yl)methyl)-1-((tetrahydrofuran-2-yl)methyl)-1H-benzo[d]imidazole-6-carboxylic acid]	0.48
850	N#Cc1ccc(COc2cccc(-c3ccc(Cc4nc5ccc(C(=O)O)cc5n4CCF)c(F)c3)c2)c(F)c1 [Example 57, 2-((3′-(4-cyano-2-fluorobenzyloxy)-3-fluorobiphenyl-4-yl)methyl)-1-(2-fluoroethyl)-1H-benzo[d]imidazole-6-carboxylic acid]	6.42
11	O=C(O)c1ccc2nc(Cc3ccc(-c4cccc(OCc5ccc(Br)cc5F)n4)cc3F)n(CC3CCCO3)c2c1 (centres unmarked) [Example 89, 2-(4-(6-(4-bromo-2-fluorobenzyloxy)pyridin-2-yl)-2-fluorobenzyl)-1-((tetrahydrofuran-2-yl)methyl)-1H-benzo[d]imidazole-6-carboxylic acid]	22.1
42	COCCn1c(Cc2c(F)cc(-c3cccc(OCc4ccc(Cl)cc4F)c3)cc2F)nc2ccc(C(=O)O)cc21 [Example 48, 2-((3′-(4-chloro-2-fluorobenzyloxy)-3,5-difluorobiphenyl-4-yl)methyl)-1-(2-methoxyethyl)-1H-benzo[d]imidazole-6-carboxylic acid]	14.3
380	N#Cc1ccc(COc2cccc(-c3ccn(Cc4nc5ccc(C(=O)O)cc5n4CC4CCCO4)c(=O)c3)c2)c(F)c1 (centres unmarked) [Example 107, 2-((4-(3-(4-cyano-2-fluorobenzyloxy)phenyl)-2-oxopyridin-1(2H)-yl)methyl)-1-((tetrahydrofuran-2-yl)methyl)-1H-benzo[d]imidazole-6-carboxylic acid]	2.7
510	O=C(O)c1ccc2nc(Cc3ccc(-c4cccc(OCc5c(F)cccc5Cl)n4)c(F)c3)n(C[C@@H]3CCO3)c2c1 [Example 126, (S)-2-(4-(6-((2-chloro-6-fluorobenzyl)oxy)pyridin-2-yl)-3-fluorobenzyl)-1-(oxetan-2-ylmethyl)-1H-benzo[d]imidazole-6-carboxylic acid]	-3.99
24	O=C(O)c1ccc2nc(Cc3ccc(-c4cccc(OCc5ccc(Cl)cc5F)n4)cc3)n(CC3CCCO3)c2c1 (centres unmarked) [Example 10, 2-(4-(6-(4-chloro-2-fluorobenzyloxy)pyridin-2-yl)benzyl)-1-((tetrahydrofuran-2-yl)methyl)-1H-benzo[d]imidazole-6-carboxylic acid]	-7.54
200	COCCn1c(Cc2ccc(-c3cccc(OCc4ccc(Cl)cc4F)n3)c(C)c2)nc2ccc(C(=O)O)cc21 [Example 4, 2-(4-(6-(4-chloro-2-fluorobenzyloxy)pyridin-2-yl)-3-methylbenzyl)-1-(2-methoxyethyl)-1H-benzo[d]imidazole-6-carboxylic acid]	-2.87
9.2	O=C(O)c1ccc2nc(Cc3ccc(-c4cccc(OCc5ccc(Cl)cc5F)n4)cc3F)n(Cc3cnco3)c2c1 [Example 34, 2-(4-(6-(4-chloro-2-fluorobenzyloxy)pyridin-2-yl)-2-fluorobenzyl)-1-(oxazol-5-ylmethyl)-1H-benzo[d]imidazole-6-carboxylic acid]	-12.6
610	COc1cccc(COc2cccc(-c3ccc(Cc4nc5ccc(C(=O)O)cc5n4Cc4ccco4)nc3)c2)c1 [Example 23, 1-(furan-2-ylmethyl)-2-((5-(3-(3-methoxybenzyloxy)phenyl)pyridin-2-yl)methyl)-1H-benzo[d]imidazole-6-carboxylic acid]	-6.89
< 3.2	N#Cc1ccc(COc2cccc(-c3ccc(Cc4nc5ccc(C(=O)O)cc5n4CC4CCO4)cc3F)n2)c(F)c1 (centres unmarked) [Example 114, 2-(4-(6-((4-cyano-2-fluorobenzyl)oxy)pyridin-2-yl)-3-fluorobenzyl)-1-(oxetan-2-ylmethyl)-1H-benzo[d]imidazole-6-carboxylic acid]	-4.71
< 3.2	N#Cc1ccc(COc2cccc(-c3cc(F)c(Cc4nc5ccc(C(=O)O)cc5n4C[C@@H]4CCCO4)cc3F)n2)c(F)c1 [Example 120, (S)-2-(4-(6-((4-cyano-2-fluorobenzyl)oxy)pyridin-2-yl)-2,5-difluorobenzyl)-1-((tetrahydrofuran-2-yl)methyl)-1H-benzo[d]imidazole-6-carboxylic acid]	-3.82
130	N#Cc1ccc(COc2cccc(-c3ccn(Cc4nc5ccc(C(=O)O)cc5n4C[C@@H]4CCCO4)c(=O)c3)n2)c(F)c1 [Example 109, (S)-2-((4-(6-(4-cyano-2-fluorobenzyloxy)pyridin-2-yl)-2-oxopyridin-1(2H)-yl)methyl)-1-((tetrahydrofuran-2-yl)methyl)-1H-benzo[d]imidazole-6-carboxylic acid]	6.49
170	N#Cc1ccc(COc2cccc(-c3ccc(Cc4nc5ccc(C(=O)O)cc5n4CCF)cc3F)n2)c(F)c1 [Example 58, 2-(4-(6-(4-cyano-2-fluorobenzyloxy)pyridin-2-yl)-3-fluorobenzyl)-1-(2-fluoroethyl)-1H-benzo[d]imidazole-6-carboxylic acid]	2.81
31	Cc1cc(-c2cccc(OCc3ccc(Cl)cc3F)n2)ccc1Cc1nc2ccc(C(=O)O)cc2n1CC1CCCO1 (centres unmarked) [Example 69, 2-(4-(6-(4-chloro-2-fluorobenzyloxy)pyridin-2-yl)-2-methylbenzyl)-1-((tetrahydrofuran-2-yl)methyl)-1H-benzo[d]imidazole-6-carboxylic acid]	-14.7
23	O=C(O)c1ccc2nc(Cc3ccc(-c4cccc(OCc5ccc(Cl)cc5)n4)cc3F)n(CC3CCCO3)c2c1 (centres unmarked) [Example 75, 2-(4-(6-(4-chlorobenzyloxy)pyridin-2-yl)-2-fluorobenzyl)-1-((tetrahydrofuran-2-yl)methyl)-1H-benzo[d]imidazole-6-carboxylic acid]	-7.98
110	N#Cc1ccc(COc2cccc(-c3ccc(Cc4nc5ccc(C(=O)O)cc5n4Cc4ccco4)cc3)n2)c(F)c1 [Example 18, 2-(4-(6-(4-cyano-2-fluorobenzyloxy)pyridin-2-yl)benzyl)-1-(furan-2-ylmethyl)-1H-benzo[d]imidazole-6-carboxylic acid]	7.37
290	O=C(O)c1ccc2nc(Cn3cnc(-c4cccc(OCc5ccc(Cl)cc5F)n4)cc3=O)n(CC3CCCO3)c2c1 (centres unmarked) [Example 112, 2-((4-(6-(4-chloro-2-fluorobenzyloxy)pyridin-2-yl)-6-oxopyrimidin-1(6H)-yl)methyl)-1-((tetrahydrofuran-2-yl)methyl)-1H-benzo[d]imidazole-6-carboxylic acid]	1.14
< 3.2	O=C(O)c1ccc2nc(Cc3cc(F)c(-c4cccc(OCc5ccc(Cl)cc5F)n4)cc3F)n(C[C@@H]3CCCO3)c2c1 [Example 116, (S)-2-(4-(6-((4-chloro-2-fluorobenzyl)oxy)pyridin-2-yl)-2,5-difluorobenzyl)-1-((tetrahydrofuran-2-yl)methyl)-1H-benzo[d]imidazole-6-carboxylic acid]	5.86
